Assay results published in PubChem BioAssay AID1949 (Southern Research Institute, 2009).
In brackets after ≈: the same amount, converted by molar mass. Inconclusive results are not listed. Activity calls are given as the source filed them. The rule behind the calls is not given here.

Test system: M. tuberculosis H37Rv growth inhibition
Assay: Mycobacterium tuberculosis H37Rv growth inhibition, cell based, confirmatory dose response (AID 1949);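 note: bacteria grown 7 days with compound before Alamar blue readout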

`O=C(Oc1ccc(Cl)c2cccnc12)c1ccc(Cl)cc1Cl` gave an IC50 of 11.6 µg/mL (≈ 32.9 µM).
Compound `Cn1c(Sc2ccc([N+](=O)[O-])c3cccnc23)nnc1-c1ccccc1` has an IC50 of 0.8 µg/mL (≈ 2.2 µM).
`COc1ccc(NC(=O)c2ccccc2Oc2ccccc2)c(OC)c1` was tested, and the IC50 was less than 0.1 µg/mL.
`CC(Oc1ccc(C(=O)NCCc2ccccc2)cc1)C(=O)OCc1ccccc1` (stereo not given) was tested, and the IC50 was 2.32 µg/mL (≈ 5.75 µM).
In the case of `Oc1ccccc1Nc1nc(NCc2ccco2)c2ccccc2n1`, the IC50 is reported as 5.36 µg/mL (≈ 16.1 µM).
`O=C(CCNc1ccc(Cc2ccncc2)cc1)c1cccs1` showed an IC50 of 5.83 µg/mL (≈ 18.1 µM).
For `O=C(CC(O)(C(F)(F)F)C(F)(F)F)Nc1cccc(C(F)(F)F)c1`, the IC50 was 3.59 µg/mL (≈ 9.72 µM).
`CCOC(=O)COc1ccc2c(=O)c(Oc3ccc(F)cc3)c(C)oc2c1` gave an IC50 of 1.51 µg/mL (≈ 4.06 µM).
`COC(=O)C(C)Oc1ccc2c3c(c(=O)oc2c1)CCCCC3` (stereo not given) was tested, and the IC50 was > 50 µg/mL (inactive).
`N#Cc1cc2c(nc1SCC(=O)OCc1ccccc1)CCC2` gave an IC50 of 0.41 µg/mL (≈ 1.26 µM).
Compound `O=C(CNS(=O)(=O)c1ccc([N+](=O)[O-])cc1)OCc1c(F)cccc1Cl` has an IC50 of 17.3 µg/mL (≈ 43 µM).
`CC(C)c1ccc(NCCC(=O)c2cccs2)cc1` gave an IC50 of 6.34 µg/mL (≈ 23.2 µM).
Compound `CCC(C)c1ccc(OCCn2ccnc2)cc1` (stereo not given) has an IC50 of 2.73 µg/mL (≈ 11.2 µM).
`c1ccc2sc(NC3=NCN(Cc4ccc5c(c4)OCO5)CN3)nc2c1` gave an IC50 of 1.52 µg/mL (≈ 4.14 µM).
`CCOc1ccc(C(=O)NC(=S)Nc2ccc(CN3CCOCC3)cc2)cc1Cl` was tested, and the IC50 was 15.7 µg/mL (≈ 36.2 µM).
In the case of `COc1ccc(CCNc2nc(N3CCCC3)nc(N3CCCC3)n2)cc1OC`, the IC50 is reported as 5.35 µg/mL (≈ 13.4 µM).
`Cc1ccc2nc(-c3cccc(NC(=O)c4cccs4)c3)[nH]c2c1` gave an IC50 of 7.08 µg/mL (≈ 21.2 µM).
With `COc1ccc(CCNC(=S)N2CCN(C/C=C/c3ccccc3)CC2)cc1OC` the IC50 was 1.73 µg/mL (≈ 4.06 µM).
`COc1ccccc1N1C(=O)c2cccc3cc([N+](=O)[O-])cc(c23)C1=O` showed an IC50 of 0.16 µg/mL (≈ 0.459 µM).
Work on `COc1ccc(-c2nn(-c3ccccc3)cc2CNCc2ccccc2)cc1` yielded an IC50 of 6.04 µg/mL (≈ 16.3 µM).
With `COC(=O)COc1ccc(NC(=O)COc2cccc(C)c2)cc1` the IC50 was 0.77 µg/mL (≈ 2.34 µM).
For `CC1=NN(C(=S)Cc2ccccc2)C(C)(O)C1` (stereo not given), the IC50 was 2.79 µg/mL (≈ 11.2 µM).
For `Cc1cc(OCC(O)CN2CCN(c3ccc(F)cc3)CC2)ccc1C(C)C` (stereo not given), the IC50 was 11.7 µg/mL (≈ 30.2 µM).
For `COc1cc(/C=C/c2ccc3cccc(O)c3n2)ccc1O`, the IC50 was 0.27 µg/mL (≈ 0.92 µM).
For `NC(=O)CSc1nnc(SCc2cccc3ccccc23)s1`, the IC50 was 15.1 µg/mL (≈ 43.5 µM).
`O=S1(=O)C=CC2ON=C(c3ccc(C(F)(F)F)cc3)C21` (stereo not given) gave an IC50 of 3.08 µg/mL (≈ 10.2 µM).
`COc1cccc(N2CCN(Cc3nc(N)nc(Nc4ccc(C)c(Cl)c4)n3)CC2)c1` was tested, and the IC50 was 1.45 µg/mL (≈ 3.3 µM).
For `O=c1cc(-c2ccccc2)nc2c(-c3cccc4ccccc34)c(Cc3ccccc3)[nH]n12`, the IC50 was 41.9 µg/mL (≈ 98.1 µM).
For `O=C(NC1C2CC3CC(C2)CC1C3)c1ccc(-c2ccc(Cl)cc2)o1` (stereo not given), the IC50 was 10.9 µg/mL (≈ 30.8 µM).
`O=C(O)c1ccc(-n2nnnc2SCc2ccccc2F)cc1` was tested, and the IC50 was > 50 µg/mL (inactive).
Work on `CCOC(=O)Cc1c(C)nc2c(-c3ccc(Cl)cc3)c[nH]n2c1=O` yielded an IC50 of 1.95 µg/mL (≈ 5.64 µM).
In the case of `O=C(Nc1cccc(Cl)c1)Nc1ccccc1OC(F)(F)C(F)F`, the IC50 is reported as 0.19 µg/mL (≈ 0.524 µM).
With `O=C(NCCc1ccc(F)cc1)NC12CC3CC(CC(C3)C1)C2` the IC50 was 0.21 µg/mL (≈ 0.664 µM).
`N#Cc1ccc(NC(=O)Nc2cccc(Cl)c2)cc1` was tested, and the IC50 was 4.6 µg/mL (≈ 16.9 µM).
`O=[N+]([O-])c1c(-n2cccn2)nn(-c2ccccc2)c1C(Cl)Cl` showed an IC50 of 3.09 µg/mL (≈ 9.14 µM).
`COC(=O)c1c(NC(=O)c2cc3ccccc3oc2=O)sc2c1CCC2` showed an IC50 of 4.29 µg/mL (≈ 11.6 µM).
In the case of `O=S(=O)(Nc1cc(Sc2ccccc2)c(O)c2ccccc12)c1cccs1`, the IC50 is reported as 25.7 µg/mL (≈ 62.2 µM).
`Cc1ccnc(N2C(=O)c3cccc4c([N+](=O)[O-])ccc(c34)C2=O)c1` showed an IC50 of 1.4 µg/mL (≈ 4.2 µM).
Work on `COC(=O)C1=C(C)NC2=C(C(=O)CC(c3ccc(F)cc3)C2)C1c1ccccc1Cl` (stereo not given) yielded an IC50 of 3.64 µg/mL (≈ 8.55 µM).
`CC1CCCN(Cc2c(O)ccc3c(=O)c(-c4nc5ccccc5s4)c(N)oc23)C1` (stereo not given) gave an IC50 of 23.6 µg/mL (≈ 55.9 µM).
With `CC(=O)N/C(=N/c1nc(C)cc(C)n1)Nc1ccc(C)cc1C` the IC50 was > 50 µg/mL (inactive).
Work on `CCc1c(C)sc(NC(=S)NC2CCN(Cc3ccccc3)CC2)c1C(=O)OC` yielded an IC50 of 1.69 µg/mL (≈ 3.92 µM).
In the case of `O=C(Nc1ccc2c(c1)OCCO2)C(Cl)Cl`, the IC50 is reported as 6.65 µg/mL (≈ 25.4 µM).
For `O=C(CCN1CCCCCC1)c1ccc(Cl)cc1`, the IC50 was 22.7 µg/mL (≈ 85.5 µM).
Work on `CCn1c(NCc2c(O)ccc3ccccc23)nc2ccccc21` yielded an IC50 of 2.05 µg/mL (≈ 6.46 µM).
With `Cc1cccnc1Nc1nc(-c2ccccn2)cs1` the IC50 was less than 0.1 µg/mL.
`O=C(Nc1ccc(-c2cc3ccccc3oc2=O)cc1)c1cc(-n2cnnc2)ccc1Cl` gave an IC50 of 6.92 µg/mL (≈ 15.6 µM).
In the case of `Cc1cc(C)nc(/N=C(/N)Nc2ccc(OCc3ccccc3)cc2)n1`, the IC50 is reported as 4.64 µg/mL (≈ 13.4 µM).
`CC(C(=O)Oc1cccc2cccnc12)N1C(=O)c2ccccc2C1=O` (stereo not given) showed an IC50 of 4.4 µg/mL (≈ 12.7 µM).
For `Cc1nn2c3ccc(N)cc3nc2c2ccccc12`, the IC50 was 17.5 µg/mL (≈ 70.6 µM).
In the case of `CCCC(=O)N1CCN(c2ccc(NC(=O)c3ccc(-c4ccc(Cl)cc4)o3)cc2Cl)CC1`, the IC50 is reported as 1.4 µg/mL (≈ 2.88 µM).
Work on `CCCC(=O)N1CCN(c2ccc(NC(=O)c3cc(Br)ccc3Cl)cc2Cl)CC1` yielded an IC50 of 3.52 µg/mL (≈ 7.05 µM).
`O=C(CC1COc2ccccc2O1)Nc1ccc(Br)cc1` (stereo not given) was tested, and the IC50 was 11 µg/mL (≈ 31.6 µM).
In the case of `O=C(CN1CCN(Cc2ccccc2)CC1)Nc1ccc([N+](=O)[O-])cc1C(=O)c1ccccc1`, the IC50 is reported as 2.78 µg/mL (≈ 6.06 µM).
With `C=CCc1ccccc1OCCCCn1ccnc1` the IC50 was 3.93 µg/mL (≈ 15.3 µM).
Compound `Cc1cccc(Nc2cc(Cl)c3nonc3c2[N+](=O)[O-])c1C` has an IC50 of 1.28 µg/mL (≈ 4.02 µM).
For `Brc1ccc(-c2nn(-c3ccccc3)cc2CNCc2ccccc2)cc1`, the IC50 was 1.24 µg/mL (≈ 2.96 µM).
`O=C(Oc1cccc2cccnc12)c1cc2ccccc2oc1=O` gave an IC50 of 3.06 µg/mL (≈ 9.64 µM).
In the case of `c1cc2c3c(cccc3c1)NC1(CCCCCC1)N2`, the IC50 is reported as > 50 µg/mL (inactive).
`COC(=O)Cc1c(C)c2ccc(OCC(=O)Nc3cc(C)cc(C)c3)cc2oc1=O` gave an IC50 of 0.2 µg/mL (≈ 0.488 µM).
